In patent US7157466B2, “Quinazoline ditosylate salt compounds” (SmithKline Beecham (Cork) Limited, priority 2000, dated 2007):
Where two headings read alike, the source gives them in different places.

Columns and labels:
[1] = test system: head and neck (HN5) cell line; assay: Methylene blue growth inhibition assay, HN5; format: cell-based; conditions: Homo sapiens, read-out: HN5 IC50 uM Cell
Experimental: (§1) Human breast (BT474), head and neck (HN5) and gastric tumor (N87) cell lines and human foreskin Fibroblasts (HFF) were cultured in low glucose DMEM (Life Technologies 12320-032) containing 10% fetal bovine serum (FBS) at 37° C. in a humidified 10% CO2, 90% air incubator. The SV40 transformed human mammary epithelial cell line HB4a was transfected with either human H-ras cDNA (HB4a r4.2) or the human c-erbB2 cDNA (HB4a c5.2). The HB4a clones were cultured in RPMI containing 10% FBS, insulin (5 μg/ml), hydrocortisone (5 μg/ml), supplemented with the selection agent hygromycin B (50 μg/ml). Cells were harvested using trypsin/EDTA, counted using a haemocytometer, and plated in […] of the appropriate media, at the following densities, in a 96-well tissue culture plate (Falcon 3075): BT474 10,000 cells/well, HN5 3,000 cells/well, N87 10,000 cells/well, HB4a c5.2 3,000 cells/well, HB4a r4.2 3,000 cells/well, HFF 2500 cells/well. The next day, compounds were diluted in DMEM containing 100 mg/ml gentamicin, at twice the final required concentration, from 10 mM stock solutions in DMSO. 100 ml/well of these dilutions were added to the 100 ml of media currently on the cell plates. Medium containing 0.6% DMSO was added to control wells. Compounds diluted in DMEM were added to all cell lines, including the HB4a r4.2 and HB4a c5.2 cell lines. The final concentration of DMSO in all wells was 0.3%. Cells were incubated at 37° C., 10% CO2 for 3 days. Medium was removed by aspiration. Cell biomass was estimated by staining cells with 100 μl per well methylene blue (Sigma M9140, 0.5% in 50:50 ethanol:water), and incubation at room temperature for at least 30 minutes. Stain was removed, and the plates rinsed under a gentle stream of water, and air-dried. To release stain from the cells 100 μl of solubilization solution was added (1% N-lauroyl sarcosine, Sodium salt, Sigma L5125, in PBS), and plates were shaken gently for about 30 minutes. Optical density at 620 nm was measured on a microplate reader. Percent inhibition of cell growth was calculated relative to vehicle treated control wells. […]

[2] = test system: gastric tumor (N87) cell line; assay: Methylene blue growth inhibition assay, N87; format: cell-based; conditions: Homo sapiens, 72 h, read-out: N87 IC50 uM Cell
Experimental: as §1, with “The next day, compounds were diluted in DMEM containing 100 mg/ml gentamicin, at twice the final required concentration, from 10 mM stock solutions in DMSO. 100 ml/well of these dilutions were added to the 100 ml of media currently on the cell plates.” left out, “Cell biomass was estimated by staining cells with 100 μl per well methylene blue (Sigma M9140, 0.5% in 50:50 ethanol:water), and incubation at room temperature for at least 30 minutes. Stain was removed, and the plates rinsed under a gentle stream of water, and air-dried. To release stain from the cells 100 μl of solubilization solution was added (1% N-lauroyl sarcosine, Sodium salt, Sigma L5125, in PBS), and plates were shaken gently for about 30 minutes.” left out

[3] = Slurry equilibration, relative physical stability of anhydrate and monohydrate crystal forms; conditions: 25° C.; for Equilibrium Form: 1:1 anhydrate/monohydrate slurry in MeOH/H2O
[4] = Moisture sorption testing; format: physicochemical; conditions: humidities e.g. 20–75% relative humidity (RH)
Experimental: Approximately 12 mg of N-{3-Chloro-4-[(3-fluorobenzyl) oxy]phenyl}-6-[5-({[2-(methanesulphonyl)ethyl]amino}methyl)-2-furyl]-4-quinazolinamine ditosylate monohydrate salt prepared according to Example 10 was weighed into a sample pan of a moisture sorption apparatus (model number SGA-100, made by VTI). The sample was dried at 60° C. under a nitrogen stream until the weight loss was less than 0.015% in 5 minutes. The relative humidity (RH) was then increased (adsorption) to 5, 15, 25, 35, 45, 55, 65, 75, 85 and 95%—at each step, equilibrium was defined as a weight change of less than 0.015% in 5 minutes. The relative humidity was then decreased (desorption) to 90, 80, 70, 60, 50, 40, 30, and 20% with the same equilibrium condition. The sorption curve (y-axis: Weight—% change vs. x-axis: % RH) is depicted in FIG. 3(a).
Approximately 15 mg of N-{3-Chloro-4-[(3-fluorobenzyl) oxy]phenyl}-6-[5-({[2-(methanesulphonyl)ethyl]amino}methyl)-2-furyl]-4-quinazolinamine di-HCl salt was weighed into a sample pan of a moisture sorption apparatus (model number SGA-100, made by VTI). The sample was dried at 60° C. under a nitrogen stream until the weight loss was less than 0.015% in 5 minutes. The relative humidity was then increased (adsorption) to 5, 15, 25, 35, 45, 55, 65, 75, 85 and 95%—at each step, equilibrium was defined as a weight change of less than 0.015% in 5 minutes. […]

[5] = 72 h, HN5 cells, 3 days, methylene blue

For CS(=O)(=O)CCNCc1ccc(-c2ccc3ncnc(Nc4ccc(OCc5cccc(F)c5)c(Cl)c4)c3c2)o1 [Example 8, N-{3-Chloro-4-[(3-fluorobenzyl)oxy]phenyl}-6-[5-({[2-(methanesulphonyl)ethyl]amino}methyl)-2-furyl]-4-quinazolinamine ditosylate anhydrate], the IC50 ([1]; HN5, 72 h) was < 5 µM and the IC50 [2] was < 5 µM.

In the case of CS(=O)(=O)CCNCc1ccc(-c2ccc3ncnc(Nc4ccc(OCc5cccc(F)c5)c(Cl)c4)c3c2)o1 [Example 10, N-{3-Chloro-4-[(3-fluorobenzyl)oxy]phenyl}-6-[5-({[2-(methanesulphonyl)ethyl]amino}methyl)-2-furyl]-4-quinazolinamine ditosylate monohydrate], the “RH at which the monohydrate becomes the thermodynamically stable form” value ([3]; slurry equilibration, remains stable up through 100% RH) is reported as 7–15 % RH.

In the case of CS(=O)(=O)CCNCc1ccc(-c2ccc3ncnc(Nc4ccc(OCc5cccc(F)c5)c(Br)c4)c3c2)o1 [Example 12, (4-(3-Fluoro-benzyloxy)-3-bromophenyl)-(6-(5-((2-methanesulphonyl-ethylamino)-methyl)-furan-2-yl)quinazolin-4-yl)-amine Ditosylate], the IC50 [1, 5] is reported as < 5 µM.

For CS(=O)(=O)CCNCc1nc(-c2ccc3ncnc(Nc4ccc(OCc5cccc(F)c5)c(Cl)c4)c3c2)cs1 [Example 13, (4-(3-Fluoro-benzyloxy)-3-chlorophenyl)-(6-(2-((2-methanesulphonyl-ethylamino)-methyl)-thiazol-4-yl)quinazolin-4-yl)-amine ditosylate], the IC50 [1, 5] was < 5 µM.

In the case of CS(=O)(=O)CCNCc1ccc(-c2ccc3ncnc(Nc4ccc(OCc5cccc(F)c5)c(Cl)c4)c3c2)o1 [N-{3-Chloro-4-[(3-fluorobenzyl)oxy]phenyl}-6-[5-({[2-(methanesulphonyl)ethyl]amino}methyl)-2-furyl]-4-quinazolinamine ditosylate], the “Equilibrium Form” value ([3]; water volume 0%, RH 0%) is reported as “Anhydrate”, the “Equilibrium Form” value ([3]; water volume 2%, RH 7%) is reported as “Anhydrate” and the “Equilibrium Form” value ([3]; water volume 5%, RH 15%) is reported as “Monohydrate”. For the same molecule, the “Equilibrium Form” value ([3]; water volume 10%, RH 26%) was “Monohydrate”, the “Equilibrium Form” value ([3]; water volume 20%, RH 43%) was “Monohydrate” and the “Equilibrium Form” value ([3]; water volume 40%, RH 66%) was “Monohydrate”. The “Equilibrium Form” value ([3]; water volume 60%, RH 80%) was “Monohydrate”, the “Equilibrium Form” value ([3]; water volume 80%, RH 91%) was “Monohydrate” and the “Equilibrium Form” value ([3]; water volume 90%, RH 95%) was “Monohydrate”. For the same molecule, the “Equilibrium Form” value ([3]; water volume 100%, RH 100%) was “Monohydrate”.

For CS(=O)(=O)CCNCc1ccc(-c2ccc3ncnc(Nc4ccc(OCc5cccc(F)c5)c(Cl)c4)c3c2)o1.Cl.Cl [di-HCl salt, N-{3-Chloro-4-[(3-fluorobenzyl)oxy]phenyl}-6-[5-({[2-(methanesulphonyl)ethyl]amino}methyl)-2-furyl]-4-quinazolinamine di-HCl salt], the Water sorption [4] was “sorbs very large amounts of water”.
